Legend:
[1] = Growth inhibition of human DLD1 cells assessed as inhibition of cell viability after 72 hrs by MTT assay; type: functional, cell-based; conditions: DLD-1, 72 h
HeLa = experiment: Growth inhibition of human HeLa cells assessed as inhibition of cell viability after 72 hrs by MTT assay; type: functional, cell-based

IC50 (HeLa) [µM] | Structure (SMILES) | IC50 [1] [µM]
52 | CC(=O)O[C@H]1CO[C@@H](O[C@@H]2C[C@]3(C)[C@H](CC[C@@H]4[C@@]5(C)CC[C@H](O)C(C)(C)[C@@H]5[C@@H](O)C[C@]43C)[C@@]3(C)C[C@@H](O[C@@H]4O[C@H](CO)[C@@H](O)[C@H](O)[C@H]4O)[C@H](O)C(C)(C)[C@H]23)[C@H](O)[C@H]1O | 52
16 | COc1cc([C@@H]2c3cc4c(cc3[C@@H](O[C@@H]3O[C@@H]5CO[C@@H](C)O[C@H]5[C@H](O)[C@H]3O)[C@H]3COC(=O)[C@H]23)OCO4)cc(OC)c1O [ETOPOSIDE] | 20

— ChEMBL document CHEMBL3124936, “Unusual fernane and gammacerane glycosides from the aerial parts of Spergula fallax” (J Nat Prod, 2014)
